Laboratory results published in US20240116971A1, “NMN AND DERIVATIVES FOR ITS USE IN THE TREATMENT OF DEPRESSION AND/OR ANXIETY IN PATIENTS HAVING A FORM OF PARKINSONISM” (Nuvamid SA, priority 2021, published 2024).

Tested on: patient having MSA
Assay: UMSARS questionary before and after 6 months of NMN (beta) in one patient
Assay type: in vivo, human
Method: A person presenting with parkinsonism was given NMN (beta) for 6 months. […] They indicated difficulties to get out of bed in the morning and feeling low and depressed during the day. Administration of 125 mg of NMN (beta) as an oral tablet occurred once per day in the morning. The patient has taken the […] questionary before the beginning of the study (D0) and after 6 months of treatment.

[1] = 6 months vs D0, daily administration

With `NC(=O)c1ccc[n+]([C@@H]2O[C@H](COP(=O)(O)O)[C@@H](O)[C@H]2O)c1` [beta-NMN, nicotinamide mononucleotide] the “items of the UMSARS questionary improved” value (6 months vs D0, 125 mg/day oral) was “improved items 1, 13, 14, 16-18, 22, 26, 28, 29, 34-36”, the “clinical signs related to motricity” value [1] was “did not improve most of the clinical signs related to motricity apart from items 1, 13, 14 and 16” and the “symptoms related to the depression” value [1] was “improved the symptoms related to the depression”.
